Experimental data: patent EP4144350B1, “TREATMENT OR PREVENTION OF VASCULAR MALFORMATION” (Universitätsmedizin Greifswald, priority 2021, dated 2023)

Key:
Format in all cases: cell-based, human
[1] = system: CCM3^-/- CI-huVECs in co-culture with CCM3^+/+ CI-huVECs; assay: Spike-in co-culture assay / apoptosis compound library screening: CCM3 knockout allele frequency by amplicon deep sequencing; settings: for Knockout allele frequencies: 10 µM of each compound, six days, added 5 h and 3 days after seeding, DMSO-treated co-culture controls 33.5 %
Experimental: Clonally expanded CI-huVEC lines with biallelic loss-of-function variants in the first coding exon of CCM3 have been described before or were established according to a published CRISPR/Cas9 genome editing protocol. Blood outgrowth endothelial cells (BOECs) were cultured in EGM-2 medium (Lonza, Basel, Switzerland) supplemented with 18 % FCS. With the approval of the local ethics committee (University Medicine Greifswald, Germany; No.: BB 047/14a), CCM1^-/- BOECs had been established previously from CCM1^+/- BOECs of a CCM1 mutation carrier with CRISPR/Cas9 genome editing. Mutant and wild-type ECs were co-cultured in 96-well plates under standard culture conditions with the indicated mutant-to-wild-type ratios. 2500 cells were seeded per well.
An apoptosis compound library with 189 small molecules that target apoptosis, survival and proliferation was used in a high throughput screening approach (HY-L003[HY-LD-000001651]; MedChem Express, Monmouth Junction, NJ, USA). Co-cultures were treated with 10 µM of each substrate for six days. Compounds were added 5 h and 3 days after cell seeding.
NSC59984 (IUPAC: (2E)-1-(4-Methyl-1-piperazinyl)-3-(5-nitro-2-furyl)-2-propen-1-one, HY19726, MedChem Express), was used for individual experiments with the indicated concentrations.
The fraction of mutant alleles in co-culture were analysed by amplicon deep sequencing or T7EI cleavage assay. In brief, genomic target regions were first amplified by PCR. For T7E1 cleavage assays, heteroduplexes were formed and digested with T7EI enzyme (New England Biolabs, Frankfurt am Main, Germany). Cleavage products were visualised by gel electrophoresis and analysed with the Image Lab software (v6.0, Bio-Rad, Hercules, CA, USA). For NGS analysis, sequencing adapters and individual barcodes were introduced in a second round of PCR [7]. Sequencing libraries were pooled and sequenced on a MiSeq instrument with 2 x 150 cycles (Illumina, San Diego, CA, USA). The data were analysed with the SeqNext software (JSI Medical Systems, Ettenheim, Germany).

CI-huVECs = assay: Bright-field microscopy of EC morphology after compound treatment; settings: library screening follow-up (Fig. 14)
[2] = system: CCM3^+/+ and CCM3^-/- CI-huVECs; assay: Cell viability after compound treatment; settings: for Cell viability differences between CCM3^+/+ and CCM3^-/- CI-huVECs: 72 h after treatment (Fig. 15)
caspase-3 = assay: Caspase-3 activity assay
Experimental: The proliferation rate of mutant and wild-type ECs in monoculture was quantified with the CyQuant® Cell Proliferation Assay Kit (C7026, Thermo Fisher Scientific). To discriminate the proliferation rates of CCM3^+/+ and CCM3^-/- CI-huVEC in co-culture, the CyQuant® Cell Proliferation Assay results were combined with mutant allele frequencies that had been determined by amplicon deep sequencing. To analyse their sensitivity to apoptosis, mutant and wild-type ECs were seeded in 96-well plates with 15.000 cells per well, and treated with staurosporine (S440, Sigma-Aldrich, St. Louis, MO, USA) 24 h later. The Caspase-3 DEVD-R110 Fluorometric HTS Assay Kit (30009, Biotium, Fremont, CA, USA), the Cell Meter™ Caspase 8 Activity Apoptosis Assay Kit (22798, AAT Bioquest, Sunnyvale, CA, USA), and the Cell Meter™ Caspase 9 Activity Apoptosis Assay Kit (22799, AAT Bioquest) were used following the manufacturer's instructions.

## CC(C)S(=O)(=O)c1ccc2nccc(Nc3ccc4scnc4c3)c2c1 [GSK-872]
[1]
  Knockout allele frequencies: 65.1%
CI-huVECs
  EC morphology / endothelial phenotype: more compact EC morphology
[2]
  Cell viability differences between CCM3^+/+ and CCM3^-/- CI-huVECs: increased the viability of CCM3^-/- CI-huVECs
[2]; Fig. 15
  Cell viability: increased cell viability at low concentrations
caspase-3; Fig. 16
  Apoptosis / caspase-3 activation: induced moderate caspase-3 activation

## O=C(Nc1ccc(Cl)c(C(F)(F)F)c1)NC1CCC(Oc2ccc(C(F)(F)F)cn2)CC1 (stereo not shown) [UC2288, reference compound]
[1]; UC2288 1 to 10 µM together with NSC59984 10 µM (Fig. 28)
  Reversal of the NSC59984 (10 µM) effect on clonal expansion of CCM3^-/- cells: could not be reversed

## C=C1C(=O)O[C@@H]2C[C@@]3(C)CCCC(=C)[C@@H]3C[C@H]12 [isoalantolactone, reference compound]
[1]
  Knockout allele frequencies: 7.7%
CI-huVECs
  EC morphology / endothelial phenotype: induced an abnormal endothelial phenotype and significant cell death
[2]
  Cell viability differences between CCM3^+/+ and CCM3^-/- CI-huVECs: No cell viability differences
caspase-3; treatment for 24 h, CCM3^+/+ and CCM3^-/- CI-huVECs (Fig. 16)
  Caspase-3 activities: did not increase caspase-3 activities
